Results published in US20250154525A1, “PLANT VIRUS MOVEMENT PROTEINS AND METHODS OF USING SAME” (Molecular Transfer, Inc., priority 2016, published 2025).

Legend:
HuVec Cells [1] = assay: GFP plasmid transfection with DOTMA/DOPE plus plant virus movement protein derived peptides (Example 2); type: cell-based; settings: 42 hours
Method: (§1) Cells were plated to so that on the day of transfection the cells were 70% confluent in 96 well tissue culture plates. A DOMTA/DOPE Lipid solution (1:1 molar ratio) at 2 mg/mL in water were mixed with an equal volume of plant virus movement protein derived peptides that had the nucleic acid binding moiety RRRRRRRRRRRR (SEQ ID NO:109) or KKKKKKKKKKKKKKKK (SEQ ID NO: 102) covalently linked to the N-terminus, or C-terminus of each peptide during peptide synthesis. Peptides were at 2 mg/mL in water. The DOTMA/DOPE and the plant virus movement peptide solution the was diluted 1 to 1 (v/v) in water. DOMTA/DOPE/PEPTIDE solutions were added to 0.1 mL of a plasmid DNA solution (EF1Alpha eGFP plasmid) at 10 μg/mL in OptiMEM.
(§2) All solutions were at room temperature. A volume of 0.2 mL of a 10 μg/mL solution of DNA was aliquoted into each well of a non-tissue cultured treated plate. 1-6 μL of transfection reagents were added to DNA solutions respectively. The transfection reagent and DNA solution was mixed by pipetting up and down twice. Transfection complexes were formed for 10 minutes. After 10 minutes, 0.01 or 0.02 mL of the transfection complex was added to cells. HuVEC, HeLa, human adult keratinocytes, human primary adult fibroblast, and A549 cells all respectively received 0.01 mL of the transfection complex. Human skeletal muscle cells, mouse C2C12 cells, and Jurkat, cells received 0.02 mL of the transfection complex. Cells were incubated for 42 hours at 37° C. at 5% CO2. Plates were read on a fluorescent plate reader. Cells were also examined visually under a microscope to assess the extent of transfection (in terms of the percent of cells transfected) with a fluorescent microscope. Other modes of analysis, for example quantification with B-galactosidase or luciferase reports plasmids can also be used.

HeLa Cells [2] = assay: as above; type: cell-based; settings: 1-6 μL of transfection reagents
Method: as §1, §2

[3] = test system: Human Primary Fibroblast Cells; assay: as above; type: cell-based; settings: 42 hours
Method: as §1, §2

C2C12 Cells = assay: GFP plasmid transfection with DOTMA/DOPE plus surface ligand peptide, fluorescent plate reader (Example 1); type: cell-based, mouse; settings: DOTMA/DOPE + peptide linked to R12 or K16; EF1Alpha eGFP plasmid; 42 hours
Summary of the method: (§3)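 DOTMA/DOPE (1:1 molar) plus peptide bearing a poly-Arg or poly-Lys tag was complexed 10 min with EF1alpha eGFP plasmid in OptiMEM, then added to 70%-confluent cells (0.01 mL fibroblasts; 0.02 mL C2C12, Jurkat). After 42 h at 37 °C, GFP was read by plate reader and compared with DOTMA without ligand.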

Human Fibroblast Cells = assay: as above; type: cell-based; settings: DOTMA/DOPE + peptide linked to R12 or K16; EF1Alpha eGFP plasmid; 42 hours
Summary of the method: as §3

HuVec Cells [4] = assay: as above; type: cell-based; settings: DOTMA/DOPE + peptide linked to R12 or K16; EF1Alpha eGFP plasmid; 42 hours
Summary of the method: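 HuVEC cells in 96 well plates at 70% confluence were transfected with EF1Alpha eGFP plasmid using a 1:1 molar DOTMA/DOPE lipid mixed with a surface ligand peptide carrying a covalently attached nucleic acid binding moiety. Complexes formed for 10 minutes, 0.01 mL went to each well, cells were incubated 42 hours at 37° C., and fluorescence was read on a plate reader.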

HeLa Cells [5] = assay: as above; type: cell-based; settings: DOTMA/DOPE + peptide linked to R12 or K16; EF1Alpha eGFP plasmid; 42 hours
Jurkat Cells = assay: as above; type: cell-based; settings: DOTMA/DOPE + peptide linked to R12 or K16; EF1Alpha eGFP plasmid; 42 hours
Summary of the method: as §3

NL-1 iPS Cells = assay: as above; type: cell-based; settings: DOTMA/DOPE + peptide linked to R12 or K16; EF1Alpha eGFP plasmid; 42 hours
[6] = value column 1 of 6, head not given, 1 µL transfection reagent
[7] = value column 3 of 6, head not given, 3 µL transfection reagent
[8] = value column 4 of 6, head not given, 4 µL transfection reagent

Compound | Relative Fluorescence of Transfection of HuVEC Cells (HuVec Cells [1]; Transfection Agent 1 μl) [Rf] | Relative Fluorescence of Transfection of HuVEC Cells (HuVec Cells [1]; Transfection Agent 1.5 μl) [Rf] | Relative Fluorescence of Transfection of HuVEC Cells (HuVec Cells [1]; Transfection Agent 2 μl) [Rf] | Relative Fluorescence of Transfection of HuVEC Cells (HuVec Cells [1]; Transfection Agent 3 μl) [Rf] | Relative Fluorescence of Transfection of HuVEC Cells (HuVec Cells [1]; Transfection Agent 4 μl) [Rf] | Relative Fluorescence of Transfection of HuVEC Cells (HuVec Cells [1]; Transfection Agent 6 μl) [Rf] | Relative Fluorescence of Transfection of Hela Cells (HeLa Cells [2]; 2 µL transfection reagent) | Relative Fluorescence of Transfection of Hela Cells (HeLa Cells [2]; 5 µL transfection reagent) | Relative Fluorescence of Transfection of Hela Cells (HeLa Cells [2]; [6]) | Relative Fluorescence of Transfection of Hela Cells (HeLa Cells [2]; [7]) | Relative Fluorescence of Transfection of Hela Cells (HeLa Cells [2]; [8]) | Relative Fluorescence of Transfection of Human Primary Fibroblast Cells ([3]; Transfection Agent 1 μl) [Rf] | Relative Fluorescence of Transfection of Human Primary Fibroblast Cells ([3]; Transfection Agent 1.5 μl) [Rf] | Relative Fluorescence of Transfection of Human Primary Fibroblast Cells ([3]; Transfection Agent 2 μl) [Rf] | Relative Fluorescence of Transfection of Human Primary Fibroblast Cells ([3]; Transfection Agent 3 μl) [Rf] | Relative Fluorescence of Transfection of Human Primary Fibroblast Cells ([3]; Transfection Agent 4 μl) [Rf] | Relative Fluorescence of Transfection of Human Primary Fibroblast Cells ([3]; Transfection Agent 6 μl) [Rf] | also measured
540 (RRRRRRRRRRRRVDYGKWERKPIRCASMSR) [compound 540] | 24771 | 34062 | 44744 | 44087 | 45137 | 30023 | 35653 | 13917 | 6422 | 27970 | 18620 | 29368 | 40610 | 35505 | 33853 | 33063 | 30219 | 
CCCCCCCC/C=C\CCCCCCCCOCC(C[N+](C)(C)C)OCCCCCCCC/C=C\CCCCCCCC.[Cl-] (centres unmarked) [DOTMA, N-[1-(2,3-dioleyloxy)propyl]-N,N,N-trimethylammonium chloride, reference compound] |  |  |  |  |  |  | 4782 | 9694 | 4424 | 5377 | 6992 |  |  |  |  |  |  | Relative Fluorescence of Transfection of C2C12 Cells (RF) (C2C12 Cells): 1289; Relative Fluorescence of Transfection of Human Fibroblast Cells (RF) (Human Fibroblast Cells): 3397; Relative Fluorescence of Transfection of HuVec Cells (RF) (HuVec Cells [4]): 12230; Relative Fluorescence of Transfection of HeLa Cells (RF) (HeLa Cells [5]): 7551; Relative Fluorescence of Transfection of Jurkat Cells (RF) (Jurkat Cells): 9084; Relative Fluorescence of Transfection of NL-1 iPS Cells (RF) (NL-1 iPS Cells): 8965
546 (RTGVKRSYGAARGDDRRRPNVVRRRRRRRRRRRR) [compound 546] | 25990 | 32762 | 37899 | 35528 | 31614 | 27690 | 15022 | 8117 | 15190 | 12772 | 11535 | 31980 | 39259 | 41747 | 35020 | 32220 | 29476 | 
109 (RRRRRRRRRRRR) [compound 109] | 24603 | 25735 | 25421 | 26641 | 26529 | 25907 | 5578 | 8007 | 4157 | 6606 | 8520 | 28368 | 30373 | 29858 | 29895 | 30941 | 29386 | 
542 (KKKKKKKKKKKKKKKKGKWERKPIRCAS) [compound 542] | 24827 | 33896 | 42546 | 43231 | 35294 | 29326 | 32901 | 35631 | 9010 | 47293 | 42152 | 30818 | 43609 | 46966 | 36343 | 33706 | 31787 | 
547 (SYVKTVPNRTRTYIKGGGGGRRRRRRRRRRRR) [compound 547] | 24554 | 26172 | 28255 | 32494 | 31180 | 26775 | 9491 | 8829 | 5899 | 10275 | 11241 | 29141 | 33704 | 35175 | 35563 | 33951 | 30539 | 
544 (GVKRSYGAARGDDRRRPNVVAPYKAWRRRRRRRRRRRR) [compound 544] | 25788 | 28622 | 31245 | 34718 | 31159 | 28639 | 19151 | 12759 | 10683 | 19877 | 16908 | 31368 | 39311 | 37634 | 32892 | 31428 | 28367 | 
